Measured values from US20230346769A1, “USE OF SIMPLE ACYCLIC POLYAMINES FOR THE TREATMENT OF DISEASES CAUSED BY PARASITES OF THE GENUS LEISHMANIA” (Universidad De Granada, priority 2020, published 2023).

Tests used:
[1] = system: L. infantum promastigote forms; test: In vitro activity against extracellular (promastigote) forms; assay type: cell-based, Leishmania infantum; conditions: for Selectivity Index (SI) L. infantum Promastigote forms: IC50 of macrophages / IC50 of parasite form; for IC50: Leishmania infantum, 72 h
Text: (§1) Methodology: Cultures of three Leishmania species, representative of the species causing each of the clinical forms of the disease, were used for these studies. Specifically, strains MCAN/ES/2001/UCM-1 O of L.infantum, isolated and characterised in Madrid from an infected dog; MHOM/BR/1975/M2904 of L.braziliensis, isolated in Brazil in a human case, and LCR-L 133 LRC of L.donovani. isolated in Jerusalem, Israel from a case of kala-azar […] (WHO Technical Reports Series 949. Geneva: WHO. March. The cultures of parasites come from an own collection which was prepared from a biobank project (Biobank and Characterisation Unit of Strains and Species of Trypanosomatids, Responsible for Human, Animal and Plant Pathologies, Cgl-2008-03687-E/Bos.), and are available on request.
(§2) The promastigote forms of the three species studied were cultured in vitro in sterility in single-phase MTL culture medium (Medium Trypanosomes Liquid) made from Hank’s Balanced Salts (Sigma-Aldrich, H6136) enriched with 10% (v/v) of Fetal Bovine Serum (SBF-1) inactivated at 56° C./ 30 minutes. The parasite inoculum to initiate the culture was 5 × 10^4 cells/ml in 5 ml medium in 25 cm^2 Falcon® plastic flasks and kept in an oven at 28° C. The cultures were performed routinely, achieving exponential growth of the flagellates until obtaining the cell mass necessary for the subsequent studies. Both promastigote forms and amastigote forms were used to conduct the assays.
(§3) The promastigote forms of the three Leishmania strains, cultured in the manner described above, were harvested in their exponential growth phase by centrifugation at 400 g for 10 min. The number of parasites was counted in a Neubauer Haemocytometer Counting Chamber and were inoculated in a 24-well plate at a concentration of 5 ×10^4 parasites/well.
(§4) The compounds to be assayed were dissolved in DMSO at a concentration of 0.01% (v/v), concentration at which this solvent is not toxic nor has any effect on the growth of parasites. The compounds were added to the culture medium at final concentrations of 100, 50, 25 and 12.5 µM. […] M. et al. Med. Chem. 2011. 54. 970-979].

[2] = system: L. donovani amastigote forms; test: In vitro activity against intracellular (amastigote) forms in macrophages; assay type: cell-based, Leishmania donovani; conditions: for Selectivity Index (SI) L. donvovani Amastigote forms: IC50 of macrophages / IC50 of parasite form; for IC50: Leishmania donovani, Macrophage, 72 h
Text: as §1
(§5) For the study of the in vitro effect on intracellular forms of Leishmania, the experimental model designed by the group of the present inventors was used [Sánchez-Moreno. M. et al. Med. Chem. 2012, 55, 9900-9913; Sánchez-Moreno. M. et al. J. Antimicrob. Chemother. 2012, 67, 387-397]. The macrophages were detached from the culture flask where they were attached by dry blows. To do this, it was incubated in cold for 5 minutes and after that the flask was hit with the palm of the hand until the cells were detached from the flask. Then, they were passed to a 25 ml capacity steriling conical bottom flask (Deltalab) to centrifuge them at 120 g for 5 minutes, removing the supernatant and were counted in Neubauer’s chamber. Cells were suspended in RPMI medium at a concentration of 1×10^4 cells/well, then cultured in 24-well plates into which a 12 mm round slide had previously been placed into each well. For adherence, the cells were left 24 h at 37° C. in 5% CO2. Subsequently, the cells were infected in vitro by placing Leishmania cells at the rate of 10 parasites/macrophage according to [Sánchez-Moreno. M et al. Med. Chem. 2011, 54, 970-979]. […] The products were allowed to act for 72 hours of incubation.
(§6) After that time, the crystals were removed and fixed with methanol on a slide and allowed to dry, after which DPX microscopy mounting medium (Panreac®) was added to it. Once the preparations had been mounted, they were dyed with Giemsa by diluting Azur-Eosin-Methylene Blue solution according to Giemsa DC (Code 251338) with Sorensen buffer (1:10 dilution). The preparations were covered and allowed to colour for 20 minutes, after which they were washed with distilled water and then allowed to drain and dry vertically. Finally, the amastigote forms were counted with the aim of immersion in a total of 200 cells.

[3] = system: L. braziliensis amastigote forms; test: as above; assay type: cell-based, Leishmania braziliensis; conditions: for Selectivity Index (SI) L. brazilensis Amastigote forms: IC50 of macrophages / IC50 of parasite form; for IC50: Leishmania braziliensis, Macrophage, 72 h
Text: as §1, §5, §6

[4] = Potentiometric titrations, protonation constants; assay type: physicochemical; conditions: 0.15 M NaCl, 298.1 K
Experimental: FEM measurements. Potentiometric titrations were conducted at 298.1 ± 0.1 K using 0.15 M NaCl as the support electrolyte. The experimental procedure (burette, potentiometer, cell, stirrer, microcomputer, etc.) has been fully described elsewhere (E. García-Spain, M.-J. Ballester, F. Lloret, J.M. Moratal, J. Faus and A. Bianchi, J. Chem. Soc. Dalton Trans. 1988, 101-104). The FEM data acquisition was performed with the PASAT software (M. Fontanelli and M. Micheloni, Program for the automatic control of the microburette and the acquisition of the electromotor force readings (PASAT). Minutes of the 1st Spanish-Italian Congress of Thermodynamics of Metal Complexes, Peñíscola, Castellón, Spain, 1990). The reference electrode was an Ag/AgCl electrode in saturated KCI solution. The glass electrode was calibrated as a hydrogen ion concentration probe by titration of previously standardised amounts of HCl with CO2 free NaOH solutions and the equivalent point determined by Gran’s method ((a) G. Gran, Analyst 1952, 77, 661 -671; (b) F.J. Rossotti and H. Rossotti, J. Chem. Educ. 1965, 42, 375-378) providing the standard potential, Eº’, and the ionic product of water (pKw = 13.73 (1)).
Hyperquad software was used to calculate protonation and stability constants (P. Gans, A. Sabatini and A. Vacca, Talanta 1996, 43, 1739-1753). The pH range investigated was 2.5-11.0 and the concentration of the ligands varied from 1×10^-3 to 5×10^-3 M. The different titration curves for each system (at least two) were treated as a single set or as separate curves without significant variations in the values of the stability constants. Finally, the data sets were fused and treated simultaneously to give the final protonation constants (Table 1). For compounds 1, 7 and 9, two protonation constants have been detected in the pH range studied with values ranging from 5.51 to 9.68 logarithmic units. For the remaining compounds, three protonation constants have been measured with values ranging from 10.08 to 2.25 logarithmic units. All compounds have charge +1 at the physiological pH value of 7.4.

[5] = system: L. braziliensis promastigote forms; test: In vitro activity against extracellular (promastigote) forms; assay type: cell-based, Leishmania braziliensis; conditions: for Selectivity Index (SI) L. brazilensis Promastigote forms: IC50 of macrophages / IC50 of parasite form; for IC50: Leishmania braziliensis, 72 h
Text: as §1, §2, §3, §4

[6] = system: L. donovani promastigote forms; test: as above; assay type: cell-based, Leishmania donovani; conditions: for Selectivity Index (SI) L. donvovani Promastigote forms: IC50 of macrophages / IC50 of parasite form; for IC50: Leishmania donovani, 72 h
Text: as §1, §2, §3, §4

[7] = system: L. infantum amastigote forms; test: In vitro activity against intracellular (amastigote) forms in macrophages; assay type: cell-based, Leishmania infantum; conditions: for Selectivity Index (SI) L. infantum Amastigote forms: IC50 of macrophages / IC50 of parasite form; for IC50: Leishmania infantum, Macrophage, 72 h
Text: as §1, §5, §6

With CNCCNCc1ccc2ccccc2n1 [Compound 9, 1-{2-quinolyl)-2,5-diazahexane] the “Selectivity Index (SI) L. infantum Promastigote forms” value [1] was 23, the IC50 [1] was 15.6 ± 0.8 µM and the “Selectivity Index (SI) L. donvovani Amastigote forms” value [2] was 11. For the same molecule, the IC50 [2] was 31.9 ± 1.1 µM, the “Selectivity Index (SI) L. brazilensis Amastigote forms” value [3] was 13 and the IC50 [3] was 26.5 ± 0.9 µM. The “Log β” value [4] was 15.10(3), the “Logarithm of the protonation constant H+L ⇌ HL” value [4] was 9.68(2) and the “Logarithm of the protonation constant HL+H ⇌ H2L” value [4] was 5.41(2). The “Selectivity Index (SI) L. brazilensis Promastigote forms” value [5] was 13, the IC50 [5] was 28 ± 0.3 µM and the “Selectivity Index (SI) L. donvovani Promastigote forms” value [6] was 13. The IC50 [6] was 27.5 ± 0.4 µM, the “Selectivity Index (SI) L. infantum Amastigote forms” value [7] was 25 and the IC50 [7] was 14.3 ± 0.6 µM.

In the case of CNCCNCc1ccnc2ccccc12 [Compound 10], the “Selectivity Index (SI) L. infantum Promastigote forms” value [1] is reported as 13, the IC50 [1] is reported as 12.5 ± 1.1 µM and the “Selectivity Index (SI) L. donvovani Amastigote forms” value [2] is reported as 6. For the same molecule, the IC50 [2] was 26.8 ± 2.1 µM, the “Selectivity Index (SI) L. brazilensis Amastigote forms” value [3] was 8 and the IC50 [3] was 21.7 ± 2.3 µM. For the same molecule, the “Log β” value [4] was 17.99(1), the “Logarithm of the protonation constant H2L+H ⇌ H3L” value [4] was 3.183(8) and the “Logarithm of the protonation constant H+L ⇌ HL” value [4] was 9.512(6). The “Logarithm of the protonation constant HL+H ⇌ H2L” value [4] was 5.297(7), the “Selectivity Index (SI) L. brazilensis Promastigote forms” value [5] was 9 and the IC50 [5] was 18.4 ± 1.1 µM. The “Selectivity Index (SI) L. donvovani Promastigote forms” value [6] was 7, the IC50 [6] was 24.1 ± 0.6 µM and the “Selectivity Index (SI) L. infantum Amastigote forms” value [7] was 9. The IC50 [7] was 18.7 ± 1.5 µM.

In the case of CN(C)CCNCc1ccccn1 [Compound 4, 1-(2-pyridyl)-5-methyl-2,5-diazahexane], the “Selectivity Index (SI) L. infantum Promastigote forms” value [1] is reported as 43, the IC50 [1] is reported as 28.6 ± 2.5 µM and the “Selectivity Index (SI) L. donvovani Amastigote forms” value [2] is reported as 32. For the same molecule, the IC50 [2] was 38.8 ± 1.4 µM, the “Selectivity Index (SI) L. brazilensis Amastigote forms” value [3] was 40 and the IC50 [3] was 30.8 ± 1.3 µM. The “Log β” value [4] was 16.88(2), the “Logarithm of the protonation constant H2L+H ⇌ H3L” value [4] was 2.25(2) and the “Logarithm of the protonation constant H+L ⇌ HL” value [4] was 9.06(1) ^b. The “Logarithm of the protonation constant HL+H ⇌ H2L” value [4] was 5.58(1), the “Selectivity Index (SI) L. brazilensis Promastigote forms” value [5] was 33 and the IC50 [5] was 37.3 ± 0.9 µM. The “Selectivity Index (SI) L. donvovani Promastigote forms” value [6] was 36, the IC50 [6] was 34.8 ± 1.5 µM and the “Selectivity Index (SI) L. infantum Amastigote forms” value [7] was 37. For the same molecule, the IC50 [7] was 33.6 ± 1.4 µM.

In the case of CNCCNCc1ccccn1 [Compound 1, 1-{2-pyridyl}-2,5-diazahexane], the “Selectivity Index (SI) L. infantum Promastigote forms” value [1] is reported as 23, the IC50 [1] is reported as 0.6 ± 0.2 µM and the “Selectivity Index (SI) L. donvovani Amastigote forms” value [2] is reported as 1. For the same molecule, the IC50 [2] was 8.9 ± 0.9 µM, the “Selectivity Index (SI) L. brazilensis Amastigote forms” value [3] was 2 and the IC50 [3] was 5.7 ± 0.3 µM. For the same molecule, the “Log β” value [4] was 15.25(1), the “Logarithm of the protonation constant H+L ⇌ HL” value [4] was 9.63(1) ^b and the “Logarithm of the protonation constant HL+H ⇌ H2L” value [4] was 5.62(1). For the same molecule, the “Selectivity Index (SI) L. brazilensis Promastigote forms” value [5] was 2, the IC50 [5] was 7.4 ± 0.6 µM and the “Selectivity Index (SI) L. donvovani Promastigote forms” value [6] was 2. For the same molecule, the IC50 [6] was 7 ± 0.5 µM, the “Selectivity Index (SI) L. infantum Amastigote forms” value [7] was 20 and the IC50 [7] was 0.7 ± 0.1 µM.
